# Data taken from a melting point compilation (Tetko et al.; mined from patent text by program, amines drawn as free bases though some values may be those of a salt).
row,Compound,melting point
1,CCCCCCCCCCC[C@@H](C[C@@H]1OC(=O)[C@H]1CCCCCC)OCCC(N)=O,35 °C
2,CCCCOc1nc(O)ns1,62 °C
3,Cc1ncccc1Oc1ccc(C(=N)Nc2cc(Cl)cc(NC(=O)C=Cc3ccccc3Cl)c2)cc1,105 to 107 °C
4,O=C1Cc2cccc(Oc3ccccn3)c2N1,187 to 191 °C
5,CCOC(=O)c1cn(-c2ccccc2)c2occc2c1=O,168 to 170 °C
6,CCCCc1oc2ccccc2c1C(=O)NCc1ccc2c(-c3ccc(OC)cc3)c(O)ccc2c1,118 to 122 °C
7,Nc1c(N=O)c(=O)n(CCC2=CCCCC2)c(=O)n1CCC1=CCCCC1,220 to 222 °C
8,Oc1cccc2nscc12,184 to 186 °C
9,CC(Cn1ccnn1)n1nnc2cc3c(=O)n(C(C)Cn4ccnn4)nnc3cc2c1=O (stereo not drawn),192 to 195 °C
10,COC=C(C#N)CNC=O,84 to 86 °C
11,COc1ccc(-c2ccc3c(c2)C=C(C(=O)Nc2ccc(CN(C)C4CCC(=O)CC4)cc2)CCS3)cc1,133 to 139 °C
12,Cc1c(C)c(N2CCN(c3ccc(C(F)(F)F)cc3)CC2)c(C)c2c1OC(C)(C)C2=O,188 to 190 °C
13,CCCCn1nc(CCC)nc1Cc1ccc(-c2ccccc2-c2nnn[nH]2)nc1,164 to 166 °C
14,N=C1NCCCN1Cc1ccc(Cl)nc1,220 °C
15,COCCCNc1ccc([N+](=O)[O-])cc1,57 to 59 °C
16,Nc1cc(-c2cccnc2)cc2nc(-c3ccccc3)nn12,201 to 203 °C
17,COc1ncc(Br)c2nc(S(=O)(=O)Nc3c(Cl)cccc3Cl)nn12,196 to 198 °C
18,N#Cc1ccc2c(c1)[C@@H](OC1=CC(=O)CC1)[C@H](O)C(CF)(CF)O2 (relative stereo),200 to 201 °C
19,O=[N+]([O-])c1cc(F)c(Cl)cc1Cl,39 to 42 °C
20,O=C1NC(=O)C(=Cc2ccc(SCc3ccccc3)cc2)S1,237 to 238 °C
21,COc1ccc(SSC)cc1,98 to 100 °C
22,Cc1nc(-c2c(F)cccc2F)n[nH]1,195 to 198 °C
23,COC(=O)Cc1cn(Cc2ccccc2)nc1OCCCc1cc(O)nn1Cc1ccc(Cl)cc1Cl,106 to 107 °C

row,Compound,melting point
1,COC(=O)CN1C(=S)CN=C(c2ccccc2Cl)c2cc(Cl)ccc21,191 to 192 °C
2,NS(=O)(=O)c1cc2c(Cl)nccc2o1,192 to 194 °C
3,CS(=O)(=O)c1ccc(-n2cnc(Cl)c2-c2ccc(Cl)cc2)cc1,222 to 223 °C
4,N#CCc1ccc(CC(=O)O)c(S(N)(=O)=O)c1,125 to 129 °C
5,CCCc1sc(-c2nccs2)c2c1C(=O)CC(C)(C)C2,69 to 72 °C
6,O=C1c2ccc(Br)cc2OCC1n1ccnc1 (stereo not drawn),201 to 203 °C
7,O=C(O)Cc1c(Oc2ccccc2)cccc1Oc1ccccc1,32 to 38 °C
8,CCOc1ccc(-c2nc(-c3cccc(CO)n3)cs2)cc1OCC,109 to 113 °C
9,COc1cccc(C(=O)NN2C(c3ccccc3)=NOC2(C)C)c1C,141 to 142 °C
10,CCCCCC(O)CNCCCCCCCCNCC(O)CCCCC (stereo not drawn),128 to 133 °C
11,Cc1c(-c2ccncc2)oc2c1C(=O)C(C)(C)CC2,133 to 134 °C
12,CSC1=Nc2ccc(Cl)cc2Nc2cscc21,152 to 154 °C
13,O=C(O)C1=Cc2cc(Br)ccc2OC1C(F)(F)F (stereo not drawn),190 to 191 °C
14,Cc1cccc(-c2nc3ccc(OCCN4CCN(C)CC4)cc3n2Cc2ccccc2)c1,91 °C
15,Cc1cc(Cc2cnc(N[N+](=O)[O-])[nH]c2=O)cnc1C,212 to 213 °C
16,Cc1cc(C#N)cc(-c2ccc3c(c2)C(C)(C)OC(=O)N3)c1,256 to 258 °C
17,COCCNC(=O)c1cccc(-c2c(F)ccc3cc(Cc4cccc(C(F)(F)F)c4)sc23)c1,116 to 117 °C
18,CC(=O)n1c(C(F)(F)F)nc(-c2ccc(S(C)(=O)=O)cc2)c1-c1cc(C)cc(Cl)c1,257 °C
19,CCc1cc(S)n2nccc2n1,178 to 180 °C
20,O=C(c1ccc([N+](=O)[O-])cc1)N1Cc2ccccc2Cc2cc(Cl)ccc21,198 to 201 °C
21,C=C(C)COc1cc(C)c(NC=O)c(C)c1,128 to 129 °C
22,CCN(CC)C(=O)C1CN2CCC1C(NCc1ccccc1OC)C2C(c1ccccc1)c1ccccc1 (stereo not drawn),121 to 123 °C

# The remaining lines, values ahead:
row,melting point,Compound
1,> 270 °C,CC(=O)Nc1c(I)c(C(=O)NC(CO)CO)c(I)c(C(=O)NC(CO)CO)c1I
2,87 to 88 °C,CC(C)C(NC(=O)OC(C)(C)C)C(=O)OC1CC(n2cc(C=CBr)c(=O)[nH]c2=O)OC1CCl (stereo not drawn)
3,90.5 to 91.5 °C,CC(CC(F)(F)F)C(N)=O (stereo not drawn)
4,95 to 97 °C,CCCCNc1c(C(=O)OCC)cnc2nn(C)cc12
5,95.5 to 97 °C,O=C(Cc1ccccc1NS(=O)(=O)C(F)(F)F)N1CCOCC1
6,133 to 136 °C,CC(Cc1cccc(NC(N)=O)c1)NC=O (stereo not drawn)
7,218 to 220 °C,COc1ccc(NC(=O)c2ccc(F)c(F)c2)cc1NC(=S)Nc1cccc(C(=O)O)c1
8,58 to 63 °C,CC1(C)CC(OC(=O)CCCCCCCCC(=O)OC2CC(C)(C)PC(C)(C)C2)CC(C)(C)P1 (stereo not drawn)
9,173 to 175 °C,CCC(=O)N[C@@H](C)C(=O)N1CCC[C@H]1C(=O)NC(C)C
10,227 to 229 °C,CCNC(=O)CC1CN=C(c2cc3cc(Oc4ccc(S(C)(=O)=O)nc4)cc(CC)c3[nH]2)S1 (stereo not drawn)
11,89.2 to 91 °C,COCc1c(C(=O)OC)c2cc(OC)ccc2n1C
12,79.5 to 80 °C,CC(=O)Oc1cc(CCc2ccccc2)cc(OC(C)=O)c1OC(C)=O
13,197 to 198 °C,CC(Cc1ccc(S(=O)(=O)NC(=O)NC2CCCCC2)cc1)NC(=O)N1Cc2ccccc2C1=O (stereo not drawn)
14,124 °C,CCN(CC)C(=O)C(C)Oc1cc(-c2ccccc2)nc2ccccc12 (stereo not drawn)
15,146 to 148 °C,CCN(C(=O)N1CCN(c2cc(Cl)cc(Cl)c2)CC1)c1nc2ccccc2nc1OC
16,131 to 133 °C,CCCC1(CCC(C)=O)Cc2cc(CCC(=O)O)c(Cl)c(Cl)c2C1=O (stereo not drawn)
17,238 °C,Cc1c(C(=O)O)cn(-c2ccnc3ccccc23)c1C
18,227 to 229 °C,CCOC(=O)c1cn(CCF)c2nc(N3CCC(N(C)C(C)=O)C3)c(F)cc2c1=O (stereo not drawn)
19,138 °C,COc1ccc(C2CCN(C(=O)C(=O)NO)CC2)cc1CC1CCCC1
20,231 °C,CC(C)(C)OC(=O)N[C@@H](Cc1ccc(NC(=O)c2csc(NC(=O)NCc3ccccc3)n2)cc1)C(=O)O
21,72 to 73 °C,CC1(C(=O)NCc2cccs2)CCCCC1
22,165 to 167 °C,O=C(COc1ccc(Cl)cc1)N1Cc2ccc(C(=O)C(Cl)(Cl)Cl)n2Cc2ccccc21
23,127 to 130 °C,CC(COc1ccccc1C1NC(C(=O)O)CS1)O[N+](=O)[O-] (stereo not drawn)
24,164 to 166 °C,COc1cc2c(c(OC(C)=O)c1)C1CCC3(C)C(=O)C(Cl)CC3C1CC2 (stereo not drawn)
25,58 °C,CC(=O)COc1ccc(C2CCCCC2)cc1
26,174 to 175 °C,COc1cc2cc(C(=O)N3CC(CCl)c4c3cc(N(C)C)c3ccccc43)[nH]c2c(OC)c1OC (stereo not drawn)
27,145 °C,CCCn1c(=O)c2c(nc(C3CCC(=O)C3)n2Cc2ccccc2)n(CCC)c1=O (stereo not drawn)
28,188 to 190 °C,NC(=O)c1cc(F)c(NC2CCNCC2)cc1F
